According to the supplement of paper PMC10307832:

Experiments:
Assay in all cases: relative viability (nuclei count vs DMSO), 5 days (fraction); higher = more cells survive
Cediranib + Lapatinib = compound: COc1cc2c(Oc3ccc4[nH]c(C)cc4c3F)ncnc2cc1OCCCN1CCCC1 [Cediranib] + CS(=O)(=O)CCNCc1ccc(-c2ccc3ncnc(Nc4ccc(OCc5cccc(F)c5)c(Cl)c4)c3c2)o1 [Lapatinib] (partner 2 µM)
Summary of the method: (§1)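 Lung cancer cell lines, seeded in 1536-well plates, were treated the following day by pin tool with a single drug or with five library-drug doses (not always all listed) in √10 steps on top of a fixed anchor-drug dose. Cells were fixed and nuclei stained in one step after 5 days, and nuclei were counted. Relative viability is the nuclei count for treated wells divided by that for vehicle wells, reported as medians of duplicate plates.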

Cediranib + Crizotinib = compound: COc1cc2c(Oc3ccc4[nH]c(C)cc4c3F)ncnc2cc1OCCCN1CCCC1 [Cediranib] + C[C@@H](Oc1cc(-c2cnn(C3CCNCC3)c2)cnc1N)c1c(Cl)ccc(F)c1Cl [Crizotinib] (partner 1 µM)
Summary of the method: as §1

Halofuginone + Foretinib = compound: O=C(C[C@H]1NCCC[C@@H]1O)Cn1cnc2cc(Br)c(Cl)cc2c1=O (racemic) [Halofuginone] + COc1cc2c(Oc3ccc(NC(=O)C4(C(=O)Nc5ccc(F)cc5)CC4)cc3F)ccnc2cc1OCCCN1CCOCC1 [Foretinib] (partner 0.25 µM)
Summary of the method: as §1

Halofuginone + Alpelisib = compound: O=C(C[C@H]1NCCC[C@@H]1O)Cn1cnc2cc(Br)c(Cl)cc2c1=O (racemic) [Halofuginone] + Cc1nc(NC(=O)N2CCC[C@H]2C(N)=O)sc1-c1ccnc(C(C)(C)C(F)(F)F)c1 [Alpelisib] (partner 2 µM)
Summary of the method: as §1

| Cell Line | relative viability (Cediranib + Lapatinib; first compound 0.04 µM) | relative viability (Cediranib + Lapatinib; first compound 0.1265 µM) | relative viability (Cediranib + Lapatinib; first compound 0.4 µM) | relative viability (Cediranib + Lapatinib; first compound 1.265 µM) | relative viability (Cediranib + Lapatinib; first compound 4 µM) | relative viability (Cediranib + Crizotinib; first compound 0.04 µM) | relative viability (Cediranib + Crizotinib; first compound 0.1265 µM) | relative viability (Cediranib + Crizotinib; first compound 0.4 µM) | relative viability (Cediranib + Crizotinib; first compound 1.265 µM) | relative viability (Cediranib + Crizotinib; first compound 4 µM) | relative viability (Halofuginone + Foretinib; first compound 0.001 µM) | relative viability (Halofuginone + Foretinib; first compound 0.003162 µM) | relative viability (Halofuginone + Foretinib; first compound 0.01 µM) | relative viability (Halofuginone + Foretinib; first compound 0.03162 µM) | relative viability (Halofuginone + Foretinib; first compound 0.1 µM) | relative viability (Halofuginone + Alpelisib; first compound 0.001 µM) | relative viability (Halofuginone + Alpelisib; first compound 0.003162 µM) | relative viability (Halofuginone + Alpelisib; first compound 0.01 µM) | relative viability (Halofuginone + Alpelisib; first compound 0.03162 µM) | relative viability (Halofuginone + Alpelisib; first compound 0.1 µM) |
| --- | --- | --- | --- | --- | --- | --- | --- | --- | --- | --- | --- | --- | --- | --- | --- | --- | --- | --- | --- | --- |
| H3255 | 0.272 | 0.228 | 0.271 | 0.246 | 0.254 | 0.945 | 0.699 | 0.825 | 0.925 | 0.861 | 0.748 | 0.849 | 0.825 | 1.01 | 0.856 | 0.664 | 0.619 | 0.558 | 0.683 | 0.606 |
| HARA | 0.762 | 0.994 | 0.7 | 0.708 | 0.703 | 1.07 | 1.15 | 0.991 | 1.02 | 1.03 | 0.997 | 0.954 | 0.934 | 0.896 | 0.493 | 1.05 | 0.817 | 0.836 | 0.839 | 0.743 |
| HCC-15 | 0.898 | – | 0.806 | 1.01 | 0.897 | 0.93 | – | 0.787 | 0.816 | 0.828 | 1.02 | 1.1 | 1.05 | 0.967 | 0.787 | 0.847 | 0.903 | 0.861 | 0.888 | 0.683 |
| HCC-44 | 0.982 | – | 0.951 | 0.995 | 0.949 | 0.803 | – | 0.774 | 0.825 | 0.935 | – | – | – | – | – | 0.804 | 0.774 | 0.691 | 0.797 | 0.433 |
| HCC-78 | 1 | 0.703 | 0.634 | 0.662 | 0.695 | 0.362 | 0.417 | 0.301 | 0.376 | 0.284 | 0.593 | 0.635 | 0.488 | 0.684 | 0.552 | 0.409 | 0.327 | 0.299 | 0.374 | 0.215 |
| HCC-366 | 1.08 | 0.479 | 0.983 | 0.957 | 1.23 | 0.629 | 0.574 | 0.423 | 0.466 | 0.788 | 0.952 | 0.973 | 0.876 | 1.02 | 0.514 | 0.369 | 0.412 | 0.449 | 0.385 | 0.197 |
| HCC-827 | 0.203 | – | 0.178 | 0.194 | 0.208 | 0.931 | – | 0.869 | 0.951 | 0.976 | 1.03 | 0.974 | 0.962 | 1.1 | 0.947 | 0.98 | 0.959 | 0.908 | 1.07 | 0.815 |
| HOP-62 | 1.15 | – | 0.879 | 1.01 | 1.35 | 0.802 | – | 0.886 | 0.858 | 1.1 | 1.09 | 1.22 | 1.02 | 0.96 | 0.704 | 0.992 | 1.03 | 0.902 | 1.04 | 0.423 |
| IA-LM | 0.933 | 0.938 | 0.673 | 0.732 | 0.794 | 0.775 | 1.28 | 0.718 | 0.828 | 0.992 | 1.29 | 1.03 | 1.08 | 0.982 | 0.07 | 0.829 | 0.982 | 0.664 | 0.606 | 0.161 |
| LCLC-103H | – | – | – | – | – | 0.995 | 1.09 | 1.02 | 1.07 | 1.07 | 0.871 | 0.768 | 0.813 | 0.749 | 0.848 | 1.09 | 1.02 | 0.915 | 0.954 | 0.956 |
| NCI-H441 | – | – | – | – | – | 0.78 | 0.76 | 1.02 | 0.504 | 0.735 | 1.08 | 1.03 | 0.823 | 0.643 | 0.362 | 0.602 | 0.605 | 0.623 | 0.664 | 0.262 |
| NCI-H1395 | 0.961 | – | 1.35 | 0.97 | 1.01 | – | – | – | – | – | 1.02 | 0.934 | 0.925 | 1.06 | 0.879 | 1.06 | 1.03 | 1.01 | 0.866 | 0.608 |
| NCI-H1623 | – | – | – | – | – | – | – | – | – | – | 0.888 | 0.895 | 0.954 | 0.876 | 0.536 | – | – | – | – | – |
| NCI-H1650 | 0.955 | 0.183 | 0.802 | 0.776 | 0.665 | 1.29 | 1.05 | 0.794 | 0.953 | 0.879 | 1.33 | 1.11 | 0.964 | 0.601 | 0.177 | – | – | – | – | – |
| NCI-H1792 | 0.792 | 0.628 | 0.863 | 0.875 | 0.735 | 1.03 | 1.03 | 0.915 | 0.979 | 0.882 | – | – | – | – | – | 0.795 | 0.724 | 0.702 | 0.662 | 0.686 |
| NCI-H1793 | 0.838 | 0.693 | 0.654 | – | 0.742 | – | – | – | – | – | 0.814 | 0.74 | 0.538 | 0.67 | 0.429 | 0.687 | 0.666 | 0.623 | 0.722 | 0.396 |
| NCI-H2342 | – | – | – | – | – | – | – | – | – | – | 1.22 | 0.984 | 0.971 | 0.963 | 1.08 | – | – | – | – | – |
| SW 900 | – | – | – | – | – | – | – | – | – | – | 1.1 | 0.833 | 0.809 | 0.627 | 0.355 | – | – | – | – | – |
